Measured values reported in patent US20150073033A1, “BIOMARKERS FOR CANCER CHARACTERIZATION AND TREATMENT” (Board of Regents, The University of Texas System, priority 2011, published 2015).
“Also recorded” adds a separate entry of the source.

How the values were obtained:
[1] = tested on: PKM2 expression; assay: EGF-induced PKM2 upregulation, immunoblotting; assay type: cell-based, human; details: U87/EGFR cells; pretreatment before EGF 100 ng/mL 12 h; AG1478 1 μM, cycloheximide 200 μg/mL, Bis-I 2 μM, Go6976 2 μM, NF-κB activation inhibitor II 7 μM, AKT inhibitor 10 μM, TBB 50 μM, U73122 2 μM
Description: FIG. 56: EGFR activation results in upregulation of PKM2 expression. A-D: Immunoblotting analyses were performed with or without the indicated antibodies. A: The indicated cell lines were treated with EGF (100 ng/mL) for 12 h. B: U87 cells were stably transfected with plasmids expressing EGFR or EGFRvIII. […] D: U87/EGFR cells were pretreated with or without cycloheximide (CHX) (200 μg/mL) for 30 min before EGF (100 ng/mL) treatment for 12 h. […] The relative mRNA levels of PKM2 and PKM1 were normalized to the levels of untreated cells and β-actin mRNA. Data represent the mean±SD of three independent experiments.
FIG. 57: EGF increases PKM2 expression in a PKC- and NF-κB-dependent manner. A-D, H: Immunoblotting analyses were performed with the indicated antibodies. […] ChIP assay was performed with an anti-RelA antibody for immunoprecipitation, followed by PCR with PKM promoter-specific primers. F: An oligonucleotide containing the putative WT or mutated NF-κB binding sequence was labeled using [γ-^32P] ATP and T4 polynucleotide kinase. […] Samples were subjected to 5% polyacrylamide gel electrophoresis, and the dried gel was exposed to x-ray film. […] The relative levels of luciferase activity were normalized to the levels of untreated cells and to the levels of luciferase activity of the Renilla control plasmid. Data represent the mean±standard deviation of three independent experiments.
(§1) FIG. 58: PKCε downstream from PLCγ1, rather than TAK1, activates IKKβ and subsequently increases PKM2 expression. […] B: U87/EGFR cells were treated with TNFα (10 ng/mL) for the indicated time. C: U87/EGFR cells were treated with or without EGF (100 ng/mL) or TNFα (10 ng/mL) for 4 h. […] HIF1α was immunodepleted from the cell lysates by incubation with an anti-HIF1α antibody, which was followed by a ChIP assay with an anti-FLAG antibody for immunoprecipitation of FLAG-RelA and PCR analysis with PKM promoter-specific primers. […] F: 293T cells were transiently transfected with constitutively active (+) or kinase-dead (−) PKC mutants. […] H, I: 293T cells were transiently transfected with the indicated plasmids.

[2] = target: T1, PKCε (Homo sapiens, UniProt Q02156); assay: TPA-induced, PKC kinase activity-dependent degradation of PKCε; assay type: cell-based; details: U87/EGFR cells; Bis-I 2 μM 30 min before TPA 8 h
T1 construct: endogenous in cells; host or cells: U87/EGFR
T1 sequence (Q02156 1-737): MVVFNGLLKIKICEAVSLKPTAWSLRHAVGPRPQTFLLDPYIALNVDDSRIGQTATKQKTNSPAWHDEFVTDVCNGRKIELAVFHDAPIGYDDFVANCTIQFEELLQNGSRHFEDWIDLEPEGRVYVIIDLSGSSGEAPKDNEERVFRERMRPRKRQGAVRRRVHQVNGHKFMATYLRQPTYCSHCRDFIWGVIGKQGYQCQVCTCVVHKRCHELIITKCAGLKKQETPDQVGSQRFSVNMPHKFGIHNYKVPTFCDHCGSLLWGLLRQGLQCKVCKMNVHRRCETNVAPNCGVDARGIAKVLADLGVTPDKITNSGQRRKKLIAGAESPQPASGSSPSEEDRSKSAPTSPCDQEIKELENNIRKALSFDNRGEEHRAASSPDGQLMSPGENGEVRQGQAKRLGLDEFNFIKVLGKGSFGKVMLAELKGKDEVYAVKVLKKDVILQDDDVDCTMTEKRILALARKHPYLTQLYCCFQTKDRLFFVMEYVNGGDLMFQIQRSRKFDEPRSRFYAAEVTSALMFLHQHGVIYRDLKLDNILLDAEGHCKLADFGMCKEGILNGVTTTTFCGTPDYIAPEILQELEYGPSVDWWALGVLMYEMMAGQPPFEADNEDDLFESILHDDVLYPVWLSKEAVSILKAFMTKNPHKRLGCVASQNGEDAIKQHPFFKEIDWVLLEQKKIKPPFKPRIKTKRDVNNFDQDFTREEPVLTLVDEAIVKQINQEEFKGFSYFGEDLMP
Description: (§2) FIG. 63: PKC, NF-κB, PI3-K, and CK2 are inhibited by their inhibitors. A, B: U87/EGFR cells were treated with Bis-I (2 μM) (A) or Go6976 (2 μM) (B) for 30 min before 12-O-tetradecanoylphorbol-13-acetate (TPA) ([…]) for 8 h. Immunoblotting analyses were performed with the indicated antibodies. C: U87/EGFR cells transiently expressing a luciferase reporter vector containing the IκBα promoter were pretreated with or without NF-κB activation inhibitor II (7 μM) for 30 min before TNFα (10 ng/mL) for 8 h. The relative levels of luciferase activity were normalized to the levels of untreated cells and to the levels of luciferase activity of the Renilla control plasmid. Data represent the mean±standard deviation of three independent experiments. […] Immunoblotting analyses were performed with the indicated antibodies.

[3] = target: T2, PKCα (Homo sapiens, UniProt P17252); assay: TPA-induced, PKC kinase activity-dependent degradation of PKCα; assay type: cell-based; details: U87/EGFR cells; Go6976 2 μM 30 min before TPA 8 h
T2 construct: endogenous in cells; host or cells: U87/EGFR
Description: as §2

[4] = tested on: NF-κB; assay: TNFα-induced, NF-κB-dependent IκBα promoter luciferase reporter; assay type: cell-based, human; details: U87/EGFR cells; NF-κB activation inhibitor II 7 μM 30 min before TNFα 10 ng/mL 8 h
Description: as §2
The luciferase reporter vector pGL3-promoter containing either the WT or a mutated PKM promoter fragment or a luciferase reporter vector containing the IκBα promoter was transfected into U87/EGFR cells, RelA+/+, or RelA−/− fibroblasts seeded in 24-well plates at 1.5×10^4 cells/well. Twelve hours after transfection, the medium was replaced with 0.1% serum for another 12-24 h, and EGF (100 ng/mL) was added 12 h before harvesting. […] cell extract were used for measuring luciferase activity. […]

[5] = tested on: PTBP1; assay: PTBP1 protein expression upon EGF stimulation; assay type: cell-based, human; details: U251 cells; NF-κB activation inhibitor II 7 μM 30 min before EGF 100 ng/mL 8 h
Description: FIG. 64: EGF increases PKM2 expression in a RelA- and PTBP1-dependent manner. […] Data represent the mean±standard deviation of three independent experiments. […] Immunoblotting analyses were performed with the indicated antibodies. C: RelA deficiency inhibits EGF-increased mRNA levels of PKM2, but not of PKM1. mRNA expression levels of PKM2 and PKM1 in RelA^+/+ and RelA^−/− fibroblasts treated with or without EGF (100 ng/mL) for 8 h were measured by real-time quantitative RT-PCR analysis. β-actin mRNA from the same cDNA library was amplified as a control. The relative mRNA levels of PKM2 (left panel) and PKM1 (right panel) were normalized to the levels of untreated cells and β-actin mRNA. Data represent the mean±SD of three independent experiments. D: PTBP1 depletion blocked EGF-induced PKM2 mRNA expression. […] The relative mRNA levels of PKM2 and PKM1 were normalized to the levels of untreated cells and β-actin mRNA. Data represent the mean±SD of three independent experiments. […] U87/EGFR cells transiently expressing a luciferase reporter vector containing the IκBα promoter were treated with or without TNFα (10 ng/mL) or EGF (100 ng/mL) for 8 h. The relative levels of luciferase activity were normalized to the levels of untreated cells and to the levels of luciferase activity of the Renilla control plasmid. Data represent the mean±standard deviation of three independent experiments.

[6] = tested on: IKKβ; assay: EGF-induced IKKβ activation, immunoblotting; assay type: cell-based, human; details: U87/EGFR cells; U73122 2 μM 30 min before EGF 100 ng/mL 12 h
Description: as §1

CN(C)CCCn1cc(C2=C(c3c[nH]c4ccccc34)C(=O)NC2=O)c2ccccc21 [Bis-I]
EGF-induced PKM2 upregulation/expression [1]: largely abrogated; also recorded: blocked
TPA-induced and PKC kinase activity-dependent degradation of PKCε [2]: successfully blocked

Cn1c2ccccc2c2c3c(c4c5ccccc5n(CCC#N)c4c21)CNC3=O [Go6976]
TPA-induced and PKC kinase activity-dependent degradation of PKCα [3]: successfully blocked

Cc1ccc(NCCCc2ccccc2)c(N)c1 [NF-κB activation inhibitor II]
EGF-induced PKM2 upregulation/expression [1]: largely abrogated
TNFα-induced and NF-κB-dependent IκBα promoter activation [4]: successfully blocked
PTBP1 protein expression [5]: not affected

COc1ccc2c(c1)CC[C@@H]1[C@@H]2CC[C@]2(C)[C@@H](NCCCCCCN3C(=O)C=CC3=O)CC[C@@H]12 [U73122]
EGF-induced PKM2 upregulation/expression [1]: abrogated
EGF-induced IKKβ activation [6]: abrogated
